Measurements: ChEMBL document CHEMBL1151820, “Antagonists of the P2X(7) receptor. From lead identification to drug development” (J Med Chem, 2009)

What was measured:
[1] = Metabolic stability in human liver microsomes assessed as half life; assay type: ADME, Microsome
[2] = Oral bioavailability in rat; assay type: ADME, organism-based; settings: in vivo
P2X purinoceptor 7 [3] = target: T1, P2X purinoceptor 7 (Homo sapiens, UniProt Q99572); experiment: Antagonist activity at P2X7 receptor in human THP1 cells assessed as inhibition of BzATP-induced ethidium uptake; assay type: functional, cell-based, THP-1
T1 sequence (Q99572 whole entry): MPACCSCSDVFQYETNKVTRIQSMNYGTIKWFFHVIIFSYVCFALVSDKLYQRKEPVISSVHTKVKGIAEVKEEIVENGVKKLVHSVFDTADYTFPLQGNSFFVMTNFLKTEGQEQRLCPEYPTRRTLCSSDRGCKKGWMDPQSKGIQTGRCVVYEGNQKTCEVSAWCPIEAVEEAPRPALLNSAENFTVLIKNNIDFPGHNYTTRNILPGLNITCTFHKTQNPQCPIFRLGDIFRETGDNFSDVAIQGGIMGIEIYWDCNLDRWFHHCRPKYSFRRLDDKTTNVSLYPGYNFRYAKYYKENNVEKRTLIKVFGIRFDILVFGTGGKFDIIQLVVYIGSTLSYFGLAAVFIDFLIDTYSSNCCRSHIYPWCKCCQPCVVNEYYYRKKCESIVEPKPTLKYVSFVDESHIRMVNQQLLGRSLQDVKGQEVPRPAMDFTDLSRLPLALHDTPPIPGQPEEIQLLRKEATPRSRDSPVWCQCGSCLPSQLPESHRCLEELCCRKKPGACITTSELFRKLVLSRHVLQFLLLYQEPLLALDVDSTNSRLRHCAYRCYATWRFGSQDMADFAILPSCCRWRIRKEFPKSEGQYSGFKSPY

[4] = Half life in ip dosed rat; assay type: ADME, organism-based; settings: in vivo
P2X purinoceptor 7 [5] = target: T1, P2X purinoceptor 7; experiment: Antagonist activity at P2X7 receptor in human THP1 cells assessed as effect on BzATP-induced Yo-Pro uptake; assay type: functional, cell-based, THP-1
Rattus norvegicus [6] = experiment: Analgesic activity in po dosed rat model of joint pain assessed as inhibition of FCA-induced weight bearing capacity administered twice daily for 5 days; assay type: functional; settings: 120 h
Rattus norvegicus [7] = experiment: Antiinflammatory activity in po dosed rat acute inflammatory pain model assessed as inhibition of FCA-induced weight bearing capacity; assay type: functional
[8] = target: T2, P2X purinoceptor 7 (Homo sapiens) (UniProt Q99572); experiment: Inhibition of human P2X7 receptor in human PBMC assessed as inhibition of BzATP-induced IL1-beta release at 0.03 uM
T2 sequence (whole entry): T1 sequence (Q99572 whole entry)

[9] = Plasma clearance in Sprague-Dawley rat; assay type: ADME, organism-based
[10] = Bioavailability in Sprague-Dawley rat; assay type: ADME, organism-based; settings: in vivo
[11] = Terminal phase volume of distribution in Sprague-Dawley rat; assay type: ADME, organism-based; settings: in vivo, read-out: Vbeta
[12] = Half life in Sprague-Dawley rat; assay type: ADME, organism-based; settings: in vivo
P2X purinoceptor 7 [13] = target: T1, P2X purinoceptor 7; experiment: Antagonist activity at human P2X7 receptor expressed in HEK293 cells assessed as inhibition of BzATP-induced calcium influx; assay type: functional, cell-based
Rattus norvegicus [14] = experiment: Antinociceptive activity in ip dosed rat Chung model of neuropathic pain; assay type: functional
P2X purinoceptor 7 [15] = target: T3, P2X purinoceptor 7 (Rattus norvegicus, UniProt Q64663); experiment: Activity at rat P2X7 receptor expressed in HEK cells assessed as effect on BzATP-induced ethidium uptake; assay type: cell-based, HEK293
T3 sequence (Q64663 whole entry): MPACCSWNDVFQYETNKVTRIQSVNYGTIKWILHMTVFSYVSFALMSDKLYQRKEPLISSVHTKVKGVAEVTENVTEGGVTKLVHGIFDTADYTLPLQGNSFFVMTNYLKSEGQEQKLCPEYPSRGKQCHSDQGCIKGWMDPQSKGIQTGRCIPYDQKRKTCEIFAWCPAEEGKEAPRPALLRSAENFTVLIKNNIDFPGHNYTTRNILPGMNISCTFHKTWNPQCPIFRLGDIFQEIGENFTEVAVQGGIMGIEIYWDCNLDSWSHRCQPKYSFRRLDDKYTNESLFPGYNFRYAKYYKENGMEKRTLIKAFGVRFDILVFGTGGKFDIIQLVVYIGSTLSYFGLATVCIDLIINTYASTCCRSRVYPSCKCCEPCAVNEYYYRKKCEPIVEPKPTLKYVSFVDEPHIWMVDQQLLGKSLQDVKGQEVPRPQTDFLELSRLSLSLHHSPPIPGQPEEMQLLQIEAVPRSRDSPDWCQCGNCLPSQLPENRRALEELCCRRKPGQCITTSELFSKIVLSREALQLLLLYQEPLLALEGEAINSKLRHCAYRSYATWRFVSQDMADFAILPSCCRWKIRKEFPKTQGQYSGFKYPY

[16] = Protein binding in rat plasma; assay type: ADME, cell-free; settings: read-out: PB (converted)
P2X purinoceptor 7 [17] = target: T1, P2X purinoceptor 7; experiment: Antagonist activity at human P2X7 receptor expressed in human U373 cells assessed as inhibition of BzATP-induced Yo-Pro uptake; assay type: functional, cell-based, U-373MG ATCC

Structure (SMILES): O=C(Cc1ccc(C(F)(F)F)c(F)c1)Nc1c(Cl)ccc2c(=O)n(CCO)ccc12
- half-life [1]: 3.7 h
- bioavailability [2]: > 75%
- IC50 (P2X purinoceptor 7 [3]): 0.00631 µM

Structure (SMILES): Clc1cccc(-c2nnnn2Cc2cccnc2)c1Cl
- half-life [4]: 1 h

Structure (SMILES): O=C(NCC1(O)CCCCCC1)c1cc(-c2cc[nH]n2)ccc1Cl
- IC50 (P2X purinoceptor 7 [5]): 0.2 µM

Structure (SMILES): CN1C(=O)CCC1C(=O)NCc1ccc(Cl)cc1Cl (configuration not stated)
- ED50 (Rattus norvegicus [6]): < 20 mg/kg
- ED50 (Rattus norvegicus [7]): < 20 mg/kg

Structure (SMILES): O=C(NCC12CC3CC(CC(C3)C1)C2)c1ncnc2c1CCN(Cc1ccccc1)C2
- inhibition [8]: 50%

Structure (SMILES): COc1ccc(CC(=O)NC(N/C(=N/C#N)Nc2cccc3ncccc23)C(C)(C)C)cc1OC (configuration not stated)
- clearance [9]: 62 mL/min/kg
- bioavailability [10]: 20%
- Vd [11]: 21 L/kg
- half-life [12]: 4 h

Structure (SMILES): CN1C(=O)CCC1C(=O)NCc1cccc(C(F)(F)F)c1Cl (configuration not stated)
- ED50 (Rattus norvegicus [6]): < 20 mg/kg
- ED50 (Rattus norvegicus [7]): < 20 mg/kg

Structure (SMILES): COc1cccc(NC(=O)c2cccc(Cc3c(C)nn(CCO)c3-c3ccccc3)c2)c1
- IC50 (P2X purinoceptor 7 [13]): ≤ 0.2 µM

Structure (SMILES): Cc1ccccc1Cn1cnnc1-c1cccc(Cl)c1Cl
- Efficacy (Rattus norvegicus [14]): 68%
- IC50 (P2X purinoceptor 7 [15]): 0.2 µM
- IC50 (P2X purinoceptor 7 [3]): 0.0794 µM

Structure (SMILES): Cc1ccccc1N1CCN(C(=O)[C@H](Cc2ccc(OS(=O)(=O)c3cccc4cnccc34)cc2)N(C)S(=O)(=O)c2cccc3cnccc23)CC1
- IC50 (P2X purinoceptor 7 [13]): 0.0158 µM

Structure (SMILES): O=C(CNS(=O)(=O)c1cccc2cnccc12)N1CCN(Cc2ccccc2)CC1
- IC50 (P2X purinoceptor 7 [13]): 0.0316 µM

Structure (SMILES): Cc1ccc(C(=O)N2CC3CNCC(C2)O3)cc1NC(=O)CC12CC3CC(CC(C3)C1)C2
- fraction unbound [16]: 0.34

Structure (SMILES): Cc1ccccc1CCC1=N[C@H](c2ccccc2)[C@H](c2ccccc2)N1
- IC50 (P2X purinoceptor 7 [17]): 0.0631 µM

Structure (SMILES): Clc1ccc(CCC2=N[C@H](c3ccccc3)[C@H](c3ccccc3)N2)cc1
- IC50 (P2X purinoceptor 7 [17]): > 1 µM

Structure (SMILES): O=C([C@H](Cc1ccc(OS(=O)(=O)c2cccc3cnccc23)cc1)NS(=O)(=O)c1cccc2cnccc12)N1CCN(c2ccc(F)cc2)CC1
- IC50 (P2X purinoceptor 7 [13]): 0.00631 µM

Structure (SMILES): O=C(CNS(=O)(=O)c1cccc2cnccc12)N1CCN(c2ccc([N+](=O)[O-])cc2)CC1
- IC50 (P2X purinoceptor 7 [13]): 0.02 µM

Structure (SMILES): CC(C)(CC1=N[C@H](c2ccccc2)[C@H](c2ccccc2)N1)c1ccccc1
- IC50 (P2X purinoceptor 7 [17]): 0.01 µM

Structure (SMILES): C[C@H](CO)n1ccc2c(NC(=O)Cc3ccc(Cl)c(C(F)(F)F)c3)cccc2c1=O
- half-life [1]: 1 h
- bioavailability [2]: 25%
- IC50 (P2X purinoceptor 7 [3]): 0.00126 µM

Structure (SMILES): CN([C@@H](Cc1ccc(OS(=O)(=O)c2cccc3cnccc23)cc1)C(=O)N1CCN(CCc2ccccc2)CC1)S(=O)(=O)c1cccc2cnccc12
- IC50 (P2X purinoceptor 7 [13]): 0.631 µM

Structure (SMILES): CN([C@@H](Cc1ccc(OS(=O)(=O)c2cccc3cnccc23)cc1)C(=O)N1CCN(c2cccc(Cl)c2)CC1)S(=O)(=O)c1cccc2cnccc12
- IC50 (P2X purinoceptor 7 [13]): 0.0126 µM

Structure (SMILES): C[C@@]1(c2cccc(F)c2)N=C(NCc2cccc(F)c2)N[C@@H]1c1cccc(F)c1
- IC50 (P2X purinoceptor 7 [17]): 0.0398 µM

Structure (SMILES): Fc1cccc(CSC2=N[C@@H](c3ccccc3)[C@@H](c3ccccc3)N2)c1
- IC50 (P2X purinoceptor 7 [17]): 0.2 µM

Structure (SMILES): CN([C@@H](Cc1ccc(OS(=O)(=O)c2cccc3cnccc23)cc1)C(=O)N1CCN(c2ccc(Cl)cc2)CC1)S(=O)(=O)c1cccc2cnccc12
- IC50 (P2X purinoceptor 7 [13]): 0.1 µM

Structure (SMILES): C=C1C2(C(=O)NNc3ccccc3)CCC(C2)C1(C)C (configuration not stated)
- IC50 (P2X purinoceptor 7 [15]): 0.0501 µM
- IC50 (P2X purinoceptor 7 [3]): 0.0501 µM

Structure (SMILES): Fc1cccc(COC2=N[C@H](c3ccccc3)[C@H](c3ccccc3)N2)c1
- IC50 (P2X purinoceptor 7 [17]): 0.2 µM
